Assay results published in patent publication US6737383B1, “Herbicidal oxadiazolidines” (priority 1999, dated 2004).

Experiments:
[1] = tested on: corn; test: Test B pre/postemergence corn; format: in vivo, Zea mays
Procedure, shortened: (§1)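 Test chemicals in a non-phytotoxic solvent mixture with surfactant were sprayed preemergence onto planted seeds and postemergence onto plants 2 to 18 cm tall (1- to 4-leaf stage). After twelve to sixteen days in a greenhouse, injury was visually rated against untreated controls from 0 (no effect) to 10 (complete control).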

[2] = tested on: sugar beet; test: Test B pre/postemergence sugar beet; format: in vivo, Beta vulgaris
Procedure, shortened: as §1

[3] = tested on: giant foxtail; test: Test B pre/postemergence giant foxtail; format: in vivo, Setaria faberii
Procedure, shortened: as §1

[4] = tested on: cocklebur; test: Test B pre/postemergence cocklebur; format: in vivo, Xanthium strumarium
Procedure, shortened: as §1

[5] = tested on: blackgrass; test: Test B pre/postemergence blackgrass; format: in vivo, Alopecurus myosuroides
Procedure, shortened: as §1

[6] = tested on: smallflower flatsedge; test: Test B flood test smallflower flatsedge; format: in vivo, Cyperus difformis
Procedure, shortened: (§2)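 Read-out is a visual response score from 0 (no effect) to 10 (complete control), assigned by comparison with untreated controls. Treatment was applied at the 2-leaf stage, and plants stayed in the greenhouse for twelve to sixteen days before scoring.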

[7] = tested on: crabgrass; test: Test B pre/postemergence crabgrass; format: in vivo, Digitaria sanguinalis
Procedure, shortened: as §1

[8] = tested on: pigweed; test: Test B pre/postemergence pigweed; format: in vivo, Amaranthus retroflexus
Procedure, shortened: as §1

[9] = tested on: surinam grass; test: Test B pre/postemergence surinam grass; format: in vivo, Brachiaria decumbens
Procedure, shortened: as §1

[10] = tested on: bamyardgrass; test: Test B flood test barnyardgrass; format: in vivo, Echinochloa crus-galli
Procedure, shortened: as §2

[11] = tested on: purple nutsedge; test: Test B pre/postemergence purple nutsedge; format: in vivo, Cyperus rotundus
Procedure, shortened: as §1

[12] = tested on: wild oat; test: Test B pre/postemergence wild oat; format: in vivo, Avena fatua
Procedure, shortened: as §1

[13] = tested on: morningglory; test: Test B pre/postemergence morningglory; format: in vivo, Ipomoea hederacea
Procedure, shortened: as §1

[14] = tested on: velvetleaf; test: Test B pre/postemergence velvetleaf; format: in vivo, Abutilon theophrasti
Procedure, shortened: as §1

[15] = tested on: rape; test: Test B pre/postemergence rape; format: in vivo, Brassica napus
Procedure, shortened: as §1

[16] = tested on: soybean; test: Test B pre/postemergence soybean; format: in vivo, Glycine max
Procedure, shortened: as §1

[17] = Postemergence, Rate 125 g/ha, scale of 0 to 10 where 0 is no effect and 10 is complete control
[18] = Preemergence, Rate 62 g/ha, scale 0 to 10 (0 no effect, 10 complete control)
[19] = Preemergence, Rate 125 g/ha, 0 is no effect, 10 is complete control
[20] = Preemergence, Rate 250 g/ha, scale 0 to 10, 0 is no effect, 10 is complete control
[21] = Preemergence, Rate 500 g/ha, scale 0 to 10 (0 no effect, 10 complete control)
[22] = Rate 62 g/ha, Postemergence, scale of 0 to 10 where 0 is no effect and 10 is complete control
[23] = Rate 250 g/ha, Postemergence, scale 0 to 10, 0 is no effect, 10 is complete control
[24] = Rate 500 g/ha, Postemergence, scale 0 to 10
[25] = Postemergence, Rate 1000 g/ha, scale 0 to 10 (0 no effect, 10 complete control)
[26] = Rate 250 g/ha, Postemergence (flood test), scale 0 to 10, 0 is no effect, 10 is complete control
[27] = Rate 500 g/ha, listed under Postemergence (flood test species), scale 0 to 10
[28] = Rate 2000 g/ha, Postemergence, scale 0 to 10

Cc1nsc(C)c1-n1c(=O)on(C(=O)N(c2ccc(F)cc2)C(C)C)c1=O [Compound 157]
1: Giant foxtail plant response rating [3, 17] | Morningglory plant response rating [13, 17] | Plant response rating, Morningglory [13, 23] | Morningglory plant response rating [13, 24] | Soybean plant response rating [16, 17] | Plant response rating, Soybean [16, 23]
0: Corn plant response rating [1, 17] | Corn plant response rating [1, 18] | Corn plant response rating (0 to 10 scale) [1, 19] | Corn plant response rating [1, 20] | Corn plant response rating [1, 21] | Corn plant response rating [1, 22] | Plant response rating, Corn [1, 23] | Corn plant response rating [1, 24] | Sugarbeets plant response rating [2, 17] | Sugarbeets plant response rating [2, 18] | Sugarbeets plant response rating (0 to 10 scale) [2, 19] | Sugarbeets plant response rating [2, 20] | Sugarbeets plant response rating [2, 21] | Sugarbeets plant response rating [2, 22] | Plant response rating, Sugarbeets [2, 23] | Sugarbeets plant response rating [2, 24] | Giant foxtail plant response rating [3, 22] | Cocklebur plant response rating [4, 17] | Cocklebur plant response rating [4, 18] | Cocklebur plant response rating (0 to 10 scale) [4, 19] | Cocklebur plant response rating [4, 20] | Cocklebur plant response rating [4, 21] | Cocklebur plant response rating [4, 22] | Plant response rating, Cocklebur [4, 23] | Cocklebur plant response rating [4, 24] | Blackgrass plant response rating [5, 17] | Blackgrass plant response rating [5, 18] | Blackgrass plant response rating (0 to 10 scale) [5, 19] | Blackgrass plant response rating [5, 22] | Plant response rating, Blackgrass [5, 23] | S. Flatsedge plant response rating [6, 25] | Plant response rating, S. Flatsedge [6, 26] | S. Flatsedge plant response rating [6, 27] | S. Flatsedge plant response rating [6, 28] | Crabgrass plant response rating [7, 17] | Crabgrass plant response rating [7, 18] | Crabgrass plant response rating [7, 22] | Redroot pigweed plant response rating [8, 17] | Redroot pigweed plant response rating [8, 18] | Redroot pigweed plant response rating (0 to 10 scale) [8, 19] | Redroot pigweed plant response rating [8, 20] | Redroot pigweed plant response rating [8, 21] | Redroot pigweed plant response rating [8, 22] | Plant response rating, Redroot pigweed [8, 23] | Redroot pigweed plant response rating [8, 24] | B. signalgrass plant response rating [9, 17] | B. signalgrass plant response rating [9, 18] | B. signalgrass plant response rating (0 to 10 scale) [9, 19] | B. signalgrass plant response rating [9, 20] | B. signalgrass plant response rating [9, 21] | B. signalgrass plant response rating [9, 22] | Plant response rating, B. signalgrass [9, 23] | B. signalgrass plant response rating ([9]; Rate 500 g/ha, Postemergence, scale 0 to 10, 0 no effect, 10 complete control) | Barnyardgrass plant response rating [10, 25] | Plant response rating, Barnyardgrass [10, 26] | Barnyardgrass plant response rating [10, 27] | Barnyardgrass plant response rating [10, 28] | Nutsedge plant response rating [11, 17] | Nutsedge plant response rating [11, 18] | Nutsedge plant response rating (0 to 10 scale) [11, 19] | Nutsedge plant response rating [11, 20] | Nutsedge plant response rating [11, 21] | Nutsedge plant response rating [11, 22] | Plant response rating, Nutsedge [11, 23] | Nutsedge plant response rating [11, 24] | Wild oats plant response rating [12, 18] | Wild oats plant response rating (0 to 10 scale) [12, 19] | Wild oats plant response rating [12, 20] | Wild oats plant response rating [12, 21] | Plant response rating, Wild oats [12, 23] | Wild oats plant response rating [12, 24] | Morningglory plant response rating [13, 18] | Morningglory plant response rating (0 to 10 scale) [13, 19] | Morningglory plant response rating [13, 20] | Morningglory plant response rating [13, 22] | Velvetleaf plant response rating [14, 18] | Velvetleaf plant response rating (0 to 10 scale) [14, 19] | Velvetleaf plant response rating [14, 20] | Velvetleaf plant response rating [14, 21] | Plant response rating, Velvetleaf [14, 23] | Velvetleaf plant response rating [14, 24] | Rape plant response rating [15, 17] | Rape plant response rating [15, 18] | Rape plant response rating (0 to 10 scale) [15, 19] | Rape plant response rating [15, 20] | Rape plant response rating [15, 21] | Rape plant response rating [15, 22] | Plant response rating, Rape [15, 23] | Rape plant response rating [15, 24] | Soybean plant response rating [16, 18] | Soybean plant response rating (0 to 10 scale) [16, 19] | Soybean plant response rating [16, 20] | Soybean plant response rating [16, 21] | Soybean plant response rating [16, 22]
8: Giant foxtail plant response rating [3, 20]
4: Plant response rating, Giant foxtail [3, 23] | Giant foxtail plant response rating [3, 24] | Crabgrass plant response rating [7, 20]
2: Blackgrass plant response rating [5, 24] | Crabgrass plant response rating (0 to 10 scale) [7, 19] | Plant response rating, Crabgrass [7, 23] | Soybean plant response rating [16, 24]
10: Giant foxtail plant response rating [3, 21]
5: Blackgrass plant response rating [5, 20] | Blackgrass plant response rating [5, 21]
6: Giant foxtail plant response rating (0 to 10 scale) [3, 19] | Crabgrass plant response rating [7, 21]
3: Giant foxtail plant response rating [3, 18] | Morningglory plant response rating [13, 21]
7: Crabgrass plant response rating [7, 24]
